target: T1, farnesyl protein transferase (FPT) (Rattus norvegicus, UniProt Q02293+Q04631); experiment: Inhibition of farnesyl protein transferase (FPT), in vitro enzyme assay, Ras-CVLS farnesylation; assay type: biochemical, rat (partially purified rat brain); settings: Table 22
T1 construct: were partially purified from rat brain by ammonium sulfate fractionation; from tissue; host or cells: rat brain
Experimental: Two forms of val^12 -Ha-Ras protein were prepared as substrates for these enzymes, differing in their carboxy terminal sequence. One form terminated in cysteine-valine-leucine-serine (Ras-CVLS) the other in cystein-valine-leucine-leucine (Ras-CVLL). Ras-CVLS is a substrate for the famesyl protein transferase while Ras-CVLL is a substrate for geranylgeranyl protein transferase I. The cDNAs encoding these proteins were constructed so that the proteins contain an amino-terminal extension of 6 histidine residues. Both proteins were expressed in Escherichia coli and purified using metal chelate affinity chromatography. The radiolabelled isoprenyl pyrophosphate substrates, [^3 H]farnesyl pyrophosphate and [^3 H]geranylgeranyl pyrophosphate, were purchased from DuPont/New England Nuclear.
The reaction was allowed to proceed for 30 minutes at room temperature and then stopped with 0.5 ml of 4% sodium dodecyl sulfate (SDS) followed by 0.5 ml of cold 30% trichloracetic acid (TCA). Samples were allowed to sit on ice for 45 minutes and precipitated Ras protein was then collected on GF/C filter paper mats using a Brandel cell harvester. Filter mats were washed once with 6% TCA, 2% SDS and radioactivity was measured in a Wallac 1204 Betaplate BS liquid scintillation counter. Percent inhibition was calculated relative to the DMSO vehicle control.

SMILES	IC50
CN1CCN(c2cc(CC(=O)N3CCC(C4c5ccc(Cl)cc5CCc5cc(Br)cnc54)CC3)ccn2)CC1 (stereo not drawn) [Example 410-U]	5 µM
CSCC[C@H](N)C(=O)N1CCC(CC(=O)N2CCN(C3c4ccc(Cl)cc4CCc4cccnc43)CC2)CC1 (stereo partly drawn) [Example 433-B]	1.89 µM
C[C@H](N)C(=O)N1CCC(CC(=O)N2CCN(C3c4ccc(Cl)cc4CCc4cccnc43)CC2)CC1 (stereo partly drawn) [Example 433]	2.5 µM

These reach a lower IC50. Values come first.

IC50	SMILES
1.8 µM	O=C(Cc1ccnc(-n2ccnc2)c1)N1CCC(C2c3ccc(Cl)cc3CCc3cc(Br)cnc32)CC1 (stereo not drawn) [Example 410-T]
1.17 µM	CSc1cc(CC(=O)N2CCC(C3c4ccc(Cl)cc4CCc4cc(Br)cnc43)CC2)ccn1 (stereo not drawn) [Example 410-V]
1.16 µM	CS(=O)(=O)c1cc(CC(=O)N2CCC(C3c4ccc(Cl)cc4CCc4cc(Br)cnc43)CC2)ccn1 (stereo not drawn) [Example 410-W]

Reference: patent US5807852A, “Tricyclic amide and urea compounds useful for inhibition of G-protein function and for treatment of proliferative diseases” (Schering Corporation, priority 1995, dated 1998)
